Source: article PMC10065799, “High-throughput profiling of sequence recognition by tyrosine kinases and SH2 domains using bacterial peptide display” (eLife, 2023)
Where two headings read alike, the source gives them in different places.

Key:
Test in all cases: pTyr-Var library bacterial peptide display kinase screen (enrichment scores)
[1] = molecular target: T1, c-Abl kinase domain (Mus musculus, UniProt P00520); assay type: biochemical;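 note: log2 fold change in enrichment of variant over reference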
T1 sequence (P00520 242-493 limits assumed): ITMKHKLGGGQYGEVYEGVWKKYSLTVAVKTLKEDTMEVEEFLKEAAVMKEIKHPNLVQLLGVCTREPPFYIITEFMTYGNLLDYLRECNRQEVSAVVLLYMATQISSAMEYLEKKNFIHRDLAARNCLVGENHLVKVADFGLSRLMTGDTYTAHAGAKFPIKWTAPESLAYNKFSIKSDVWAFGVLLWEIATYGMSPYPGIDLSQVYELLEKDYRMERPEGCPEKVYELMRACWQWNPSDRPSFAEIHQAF

[2] = molecular target: c-Src kinase domain (Homo sapiens, UniProt P12931); assay type: biochemical;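 note: log2 fold change in enrichment of variant over reference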
[3] = test system: Fer kinase domain; assay type: biochemical, mouse; settings: sheet "Fer";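 note: log2 fold change in enrichment of variant over reference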
[4] = test system: EPHB1 kinase domain; assay type: biochemical, human; settings: for Screen: sheet EPHB1, effect of the variant peptide relative to its reference peptide in the pTyr-Var library screen (enrichment scores); for Screen (variant relative to reference peptide, measured in the pTyr-Var library screen): sheet "EPHB1", variant seq vs reference seq, bacterial peptide display enrichment
[5] = fig5-data2, sheet "Abl", Screen for the variant/reference peptide pair, pTyr-Var library
[6] = sheet "Src", effect of the variant peptide relative to its reference peptide in the pTyr-Var library screen
[7] = sheet "Abl", effect of variant peptide relative to its reference peptide in pTyr-Var library screen (enrichment)
[8] = sheet "Src", variant peptide versus its reference peptide in the pTyr-Var library screen
[9] = variant peptide relative to its reference peptide, pTyr-Var library screen enrichment
[10] = value of the variant peptide against its reference peptide in the pTyr-Var library screen with Fer

AALSAYAPQRP [PTPRN2_Y249_A251P]
Screen [1, 5]: -0.5816

AATTAYSKPKQ [MAP3K7_Y405_R410Q]
Screen [1, 5]: -0.9283

ACLSLYGGFVE [MVD_Y164_R161L]
Screen [2, 6]: -0.5782

ADLVQYFMEHH [PTPN11_Y80_E76D_YF]
Screen [1, 5]: 0.02377

ADRNHYRRFRR [YBX1_Y145_P149R_YF]
Screen [1, 7]: -2.647

AEFGLYRAMVR [VSX2_Y222_G223R_YF]
Screen [2, 8]: -2.091 | Screen [1, 7]: 2.423

AGIVVYNIIGW [MYH7_Y588_D587V]
Screen [2, 8]: 2.236

AKAFIYASHIV [ZNF573_Y229_G224A]
Screen [3, 9]: 0.4356 | Screen ([2]; sheet "Src", effect of the variant peptide against its reference peptide, seen in the pTyr-Var library screen): 0.3183

AMGPVYQAAAL [HYOU1_Y421_A419P]
Screen [3, 10]: 1.97 | Screen [2, 6]: 0.5389

AQMAMYFWEMS [TRPM4_Y577_G582S]
Screen [2, 8]: -0.06271

CSRCFYQLTKL [AR_Y858_R856C]
Screen [3, 10]: 1.959

CTHDLYMFMRE [FGFR3_Y724_I726F]
Screen [2, 6]: 0.09652 | Screen [4]: 0.1536

DAAEDYAEGVC [DHODH_Y194_R199C]
Screen [1, 5]: -0.7613

DCLASYLDKVR [KRT16_Y131_R127C]
Screen [1, 5]: 1.893

DDSNPYINVKL [MTHFD1_Y52_L51P]
Screen [1, 5]: -0.8391

DENWFYTQAAS [RPS19_Y54_R56Q]
Screen [1, 5]: 0.05995

DFPGIYSGFDD [POLR1C_Y33_N32I_YF]
Screen [2, 8]: 3.694

DHPSEYAARQL [ANXA13_Y90_R86H]
Screen [1, 5]: 0.8208

DLQDEYDFKRK [STAT1_Y170_C174R]
Screen [1, 7]: -1.312

DPLLTYQFPPK [LMNA_Y481_R482Q]
Screen [2, 6]: 1.304

EFSNQYKATIG [RAB7A_Y37_K32E]
Screen [1, 5]: 1.976

ELQGTYTSLQQ [KIF3C_Y574_R571Q]
Screen [2, 6]: 1.278

ETEMLYGSARR [PRC1_Y464_P468R]
Screen [3, 10]: -2.34 | Screen [2, 8]: -0.8951

FDKPVYQKTTE [LDLR_Y828_N825K]
Screen [1, 5]: 0.7779

FEPWVYSLSFE [PRKDC_Y647_F649L_YF]
Screen [2, 8]: 0.05044 | Screen [1, 5]: -0.5163

FIGVTYKNKED [PDGFRA_Y993_E996K_YF]
Screen [1, 5]: -0.7207

FKEDPYLVVNP [MCM6_Y810_E806K_YF]
Screen [2, 6]: -0.4166 | Screen [1, 5]: -1.709

FKEVVYQAMEE [TACC3_Y684_E680K]
Screen [2, 8]: -0.2069

FLTQHYDAIPQ [ANG_Y38_K41I]
Screen [3, 10]: 3.881

FQKNVYSEELR [LMNA_Y211_I210V]
Screen [2, 6]: -1.452

FRAVKYLQMVG [AVPR2_Y117_C112Y_YF]
Screen [1, 5]: 1.48

FRDALYKSMVD [PHEX_Y250_F252S_YF]
Screen [1, 5]: 1.216

FRQNGYIPGSN [PCDHGB2_Y895_V894G_YF]
Screen [1, 5]: -0.7593

FSMGCYEFSLG [HMGCL_Y198_I200F_YF]
Screen [3, 10]: 0.8119 | Screen [2, 6]: -0.3724 | Screen [1, 5]: 1.5

FSQQTYFPVSN [ABCD1_Y180_R182P_YF]
Screen [2]: 1.076

FVPSNYVAEDR [FRK_Y104_I100V_YF]
Screen [1, 5]: 0.1639

GENTVYAQVFN [LY9_Y603_M602V]
Screen [3, 10]: 0.3094 | Screen [2, 6]: 1.086 | Screen [4]: 0.06415

GFEEAYSVSKK [PAFAH1B1_Y28_F31S_YF]
Screen [2, 8]: -2.622

GFFDLYGGEKF [PTPN11_Y66_D61G_YF]
Screen [2, 8]: -0.05122

GFGGGYGGVLT [KRT19_Y65_A60G_YF]
Screen [1, 5]: -0.6696

GSSKIYFLHAD [TLR5_Y108_P112A]
Screen [2, 8]: -1.042

HGAKVYIDPFT [EPHB4_Y590_T587A]
Screen [1, 5]: 1.249

HITQVYGFFDE [PPP2CA_Y127_Q122H_YF]
Screen [2, 8]: 0.5425

HLGNQYVNVMN [SLC3A1_Y461_R456H]
Screen (variant relative to reference peptide, measured in the pTyr-Var library screen) [4]: -0.5071

HLLRIYFDITD [MMP27_Y307_W304L_YF]
Screen [4]: 0.4409

IATTIYSGDKI [UGGT2_Y823_A821T]
Screen [2, 8]: -1.846

ICFSDYVEVAD [PHACTR1_Y525_R521C]
Screen [4]: 0.304 | Screen [1, 5]: 1.249

ICGVSYDEFRF [CFTR_Y512_F508C_YF]
Screen [3, 10]: -0.3864 | Screen [2, 6]: -0.6525

IGVDSYSVCKR [RPS6KA3_Y433_G431D]
Screen [1, 5]: 0.006002

INITIYGKTFH [EFHC1_Y177_R182H]
Screen [1, 5]: 2.247

ISNATYKQIGL [FLT1_Y199_E201Q]
Screen [1, 5]: -0.6358

IVRSPYEDLED [VHL_Y185_L184P]
Screen [1, 7]: 0.8994

KDQGIYEDFVE [MYL6_Y86_T85I_YF]
Screen [3, 10]: 1.02 | Screen [2, 8]: 1.232

KGSLPYSLILD [PKD1L2_Y406_N407S]
Screen [2, 8]: 1.59

KKHIPYRQHKS [CSNK1G2_Y206_E208Q]
Screen [3, 10]: 0.3167 | Screen [4]: 0.2176

KNNSIYVLANI [VNN1_Y134_V136L]
Screen [3, 9]: 1.88 | Screen [1, 7]: -3.297

KRAAIYNPVIF [RHO_Y301_S297R_YF]
Screen [3, 9]: -0.6585 | Screen [2, 8]: -1.114

KVPAIYGVGTR [CPS1_Y162_D165G]
Screen [2, 6]: 1.669

LKRCQYVTKKV [ALDOA_Y204_E207K]
Screen [4]: -1.465

LLASGYDSPIN [ABLIM1_Y638_R637G]
Screen [4]: -0.7648

LLSVAYKNVVR [YWHAZ_Y48_G53R]
Screen [1, 7]: 1.295

LLTKVYVVEGS [ZMPSTE24_Y253_P248L]
Screen [1, 7]: -5.536

LQKNIYSEELR [LMNA_Y211_F206L]
Screen [2, 6]: -1.475 | Screen [4]: 0.6923

LREKVYVSLEA [RXRA_Y397_A398V]
Screen [2, 8]: -2.342

LVLIKYLPEWT [PSEN1_Y240_F237L]
Screen [1, 5]: 1.753

MFNPCYGLFEF [NEDD4L_Y680_Y679C_YF]
Screen [3, 10]: -0.1579 | Screen [2, 8]: -0.1736

MKKMHYVDPDR [ST3GAL5_Y99_H104R]
Screen [1, 7]: -0.8054

MLEAPYVDRNS [F10_Y384_V382A]
Screen [1, 5]: 1.1

MNKNAYHNVTT [ST3GAL6_Y306_A311T]
Screen [1, 7]: -0.8996

NAGAFYVLSTL [FLVCR2_Y325_A326V]
Screen [3, 10]: -2.63

NPQKSYFICLF [WAS_Y83_R86C_YF]
Screen [1, 7]: 3.12

PAIFTYDEFKK [COL8A2_Y648_T645I_YF]
Screen [3, 10]: -2.501 | Screen [2, 6]: 0.8342

PKDSAYVTWEP [TTN_Y20731_S20726P]
Screen [3, 9]: 0.6125 | Screen [2, 8]: 0.3327

PQAVTYAEVKH [LILRB4_Y360_K362E]
Screen [2, 6]: 2.83 | Screen [4]: 2.401

PSPTKYSLSPS [RANBP2_Y785_R784K]
Screen [1, 5]: 1.871

PVGVLYEVKVF [PTS_Y128_K129E_YF]
Screen [3, 9]: 1.639 | Screen [4]: 0.4109

QAIDEYEKWLE [MAP9_Y603_N601D]
Screen [4]: -0.2835

QDRTFYERVRT [SPEN_Y633_S635R_YF]
Screen [3, 9]: -1.346

QMIETYFDFRV [NSMF_Y506_L511V]
Screen [2, 8]: -0.8869 | Screen [4]: -0.6862

QRASDYFSQQM [GBP6_Y333_A331S_YF]
Screen [4]: 1.684

QRRNVYFFSFL [PTEN_Y176_Y174N_YF]
Screen [3, 10]: -1.418

QTEAPYRFIFM [PTPN11_Y511_Q510P_YF]
Screen [3, 10]: 2.526

QTSSNYDDAMQ [ZNF281_Y531_I527T]
Screen [1, 7]: -4.858

RDLHTYIMPAH [PNMT_Y256_R254H]
Screen [4]: -2.793

RILENYGADID [DNAH5_Y596_L591R]
Screen [1, 5]: -0.1652

RKLVDYDSAQH [BIN1_Y150_R154Q]
Screen [1, 5]: -0.7012

RLAKRYLIWEC [SCN5A_Y694_Q692K]
Screen [1, 7]: -1.185

RSSGSYGGGGQ [HNRNPA1_Y341_P340S]
Screen [4]: 0.1057

SEKISYVFMKR [SSX7_Y48_L43S_YF]
Screen (variant relative to reference peptide, measured in the pTyr-Var library screen) [4]: -1.247

SGEKPYKCSVC [ZNF543_Y283_E287V]
Screen [1, 7]: 3.958

SGSFRYGSSFE [SELE_Y390_C394F]
Screen [1, 7]: -0.02524

SKHHLYSDLQT [PTCHD1_Y84_R82H]
Screen [3, 10]: 1.431

SSFDTYHLSRE [KIR3DL2_Y253_I252T_YF]
Screen [2, 6]: -1.121

SSSNPYSTVTV [ACTN2_Y599_M604V]
Screen [3, 10]: -0.1641 | Screen [2, 6]: -0.5875

SSTAMYSAAGR [PSMB1_Y8_P11A]
Screen [1, 5]: -0.5664

TDTQLYGRFGS [ITGA2B_Y384_G380D]
Screen [2, 6]: -0.04787

TQPSPYAVFLF [RPGRIP1_Y823_R827L_YF]
Screen [3, 9]: -0.3535 | Screen [2, 8]: -0.4188 | Screen [4]: -0.3084

TRDVNYGWIIH [MT-CYB_Y75_R80H]
Screen [3, 10]: 3.39

TTPFNYSFIFK [RAB14_Y8_A4T_YF]
Screen [4]: 0.03762

TVHPGYGFLSE [PCCA_Y143_A138T]
Screen [1, 5]: 1.846

VDEVLYEDSSA [MTHFS_Y197_T202A]
Screen [3, 10]: -0.2341

VFGVSYDEFRF [CFTR_Y512_I507V_YF]
Screen [3, 10]: 0.375 | Screen [2, 6]: 0.2836

VIIVLYFSLWK [SLC6A2_Y249_V245I]
Screen [1, 7]: -0.9059

VKMLPYTEVTR [GDI1_Y93_L92P]
Screen [4]: -2.754

VQVAFYTVMMN [SPATA17_Y84_M86V_YF]
Screen [3, 9]: -1.379

VVKTVYSLQPS [KNSTRN_Y87_P92S]
Screen [2, 6]: -0.2694

VVSLFYGTALF [OR10C1_Y251_M246V]
Screen [2, 8]: -0.3109
